Laboratory results taken from patent US20050080103A1, “Procedure for asthmatic, and other non-invasive surgery for brain tumor cures” (priority 2003, published 2005).
Entries after “also recorded” stand apart in the source; their conditions may differ.

Test system: asthma (attributed by the author to a brain tumor)
Test: Self-treatment of the inventor's asthma by repeated deep inhalation of evaporated free base cocain
Conditions: inventor's self-report

## COC(=O)[C@H]1[C@@H](OC(=O)c2ccccc2)C[C@@H]2CC[C@H]1N2C [cocain]
One person, evaporated free base piece about 1/10 gram inhaled once per half hour, 32 sessions over 16 hours, outcome realized 4 months later
  Outcome on asthma / asthma attacks: effected the cure of my asthma; also recorded: not getting any more asthma attacks
One full deep breath of evaporated free base cocain per session
  Time until the metabolic use of one inhaled dose came to an end (session duration): approximately one half
